In paper PMC5617480 (Oncotarget, 2017):

Tested on: telomeres/telomerase-related genes
Experiment: RT-qPCR array (Telomeres & Telomerase PCR Array)
Assay type: cell-based, human
Details: BEL-7404 cells, 10 μM, 24 h
Procedure: To determine the mechanism(s), we further explored the effect of complex 6 on the expression of telomeres/telomerase-related genes (such as TRF1, hTERT, TRF2, c-myc, and 53BP1) in the BEL-7404 model. Firstly, RT-qPCR array was used to determine mRNA levels of telomeres/telomerase-related gene expressions in BEL-7404 cells when the cells were treated with complex 6. […] Secondly, these telomerase-related genes were determined by western blot. […]
In addition, RNA
30.0 min at room temperature in the dark. Finally, the extraction, RT-PCR, and the selective binding to G4s by BEL-7404 cell cycle was determined with FACS Calibur complexes 4–6 was according to the our previous reported flow cytometer (BD) and analyzed using Cell Quest. […]
ME). Gene expression by a panel of genes for RT-Determination of caspase-3/9 activity by flow qPCR array cytometric analysis Differential expression of telomeres/telomerase-related genes was analyzed using the Telomeres &
Colorimetric analysis of caspase-9 and caspase-3 Telomerase PCR Array (RT2 Profiler™ PCR Array Human activation in BEL-7404 cells exposed to 10 μM of Telomeres & Telomerase, PAHS-010Z, SABioscience, complexes 4–6 for 24.0 h were carried out using the USA) obtained from Kangchen Bio-tech, Shanghai, China.
CaspGLOW™ Fluorescein Active Caspase-9/Caspase-3 RNA was extracted according to standard protocols and Staining Kit. The BEL-7404 cells treated with complexes converted to first strand cDNA using the RT2 First Strand 4–6 and the controlled BEL-7404 cells were harvested Kit. The template was added to an instrument specific, from RPMI 1640 medium with 10% FBS, in a density of ready-to-use RT2 SYBR Green qPCR Master Mix. The 1.0 × 10^6 cells per milliliter. These cells were washed with resulting mixture was added to the wells (25.0 μL/well) of PBS and centrifuged for 3 times, and were then mixed the PCR Array plate containing the telomere maintenance, with 500 μL culture. 1.0 μL of FITC-LEHD-FMK or/telomere-associated complexes, telomere regulation and FITC-DEVD-FMK were consequently added and other genes associated with telomeres gene-specific primer incubated for 2.0 h at 37 °C with 5% CO2. The BEL- sets (25 μL for 96-well plates) and PCR was performed.
7404 cells were then determined with a FACS AriaII flow The threshold cycle (Ct) values for all the genes on each cytometer equipped with a 488 nm argon laser. Results PCR Array were calculated using the instrument specific were represented as the percent change on the activity software and the fold-changes in gene expression for pair-comparing with the control group. wise comparison were calculated using the 2-ΔCt method.
Western blot assay TRAP Assay (TRAP-silver staining assay)
The BEL-7404 Cells were treated with the same as Each telomerase extract was prepared from BEL-the above for 24.0 h with complexes 4–6 (10 μM), and 7404 cells. A modified version of the TRAP assay was total proteins were extracted by lysis buffer RIPA. Then used. The PCR was performed in a final […] use BCA protein assay to measure concentrations of each reaction volume composed of reaction mix ([…]) sample. After electrophoresis on 10% PAGE-SDS gel containing pH 8.0 Tris-HCl (20.0 mM), deoxynucleotide and blotting, anti-mutp53, 53BP1, TRF1, TRF2, hTERT, triphosphates ([…]), BSA (20 mg/mL), primer

cis-[PtCl2(S-(–)-FOA)] [complex 6]
Fold Change, ABL1: 0.80 | Fold Change, ACD: 1.16 | Fold Change, ACTB: 0.76 | Fold Change, AKT1: 0.77 | Fold Change, ATM: 1.08 | Fold Change, ATP5C1: 1.19 | Fold Change, B2M: 1.15 | Fold Change, BCL2: 0.76 | Fold Change, BLM: 1.21 | Fold Change, CDK2: 0.80 | Fold Change, CHEK1: 1.13 | Fold Change, CHEK2: 1.23 | Fold Change, DCLRE1B: 0.81 | Fold Change, DCLRE1C: 1.20 | Fold Change, DKC1: 1.14 | Fold Change, EGF: 1.11 | Fold Change, EME1: 1.26 | Fold Change, ERCC1: 1.00 | Fold Change, ERCC4: 1.22 | Fold Change, GAPDH: 0.97 | Fold Change, GAR1: 0.95 | Fold Change, HAT1: 1.13 | Fold Change, HNRNPA2B1: 1.06 | Fold Change, HNRNPD: 0.95 | Fold Change, HPRT1: 1.14 | Fold Change, HSP90AA1: 1.35 | Fold Change, HSPA1L: 1.65 | Fold Change, IGF1: 0.02 | Fold Change, KRAS: 0.88 | Fold Change, KRIT1: 1.12 | Fold Change, MEN1: 1.14 | Fold Change, MRE11A: 1.41 | Fold Change, MSH2: 0.90 | Fold Change, MSH3: 0.66 | Fold Change, MUS81: 1.55 | Fold Change, MYC: 0.75 | Fold Change, NBN: 0.79 | Fold Change, NCL: 1.04 | Fold Change, NHP2: 1.46 | Fold Change, NOP10: 0.82 | Fold Change, OBFC1: 1.32 | Fold Change, PARP1: 1.02 | Fold Change, PAX8: 9.91 | Fold Change, PIF1: 0.84 | Fold Change, PINX1: 1.13 | Fold Change, PLK1: 0.72 | Fold Change, POT1: 0.87 | Fold Change, PPARG: 1.08 | Fold Change, PPP2R1A: 0.88 | Fold Change, PPP2R1B: 0.68 | Fold Change, PRKCA: 1.12 | Fold Change, PRKCB: 0.48 | Fold Change, PRKDC: 0.83 | Fold Change, PTGES3: 1.07 | Fold Change, PURA: 1.07 | Fold Change, RAD17: 1.11 | Fold Change, RAD50: 1.44 | Fold Change, RAP1A: 0.90 | Fold Change, RAPGEF1: 0.97 | Fold Change, RASSF1: 1.26 | Fold Change, RB1: 0.59 | Fold Change, RFC1: 1.33 | Fold Change, RIF1: 1.67 | Fold Change, RPLP0: 1.05 | Fold Change, RTEL1: 0.39 | Fold Change, SART1: 1.50 | Fold Change, SIRT2: 0.84 | Fold Change, SIRT6: 1.89 | Fold Change, SLX4: 0.87 | Fold Change, SMAD3: 0.65 | Fold Change, SMG6: 1.05 | Fold Change, SP1: 0.70 | Fold Change, SSB: 1.14 | Fold Change, SUN1: 1.04 | Fold Change, TEP1: 1.73 | Fold Change, TERF1: 1.39 | Fold Change, TERF2: 0.99 | Fold Change, TERF2IP: 1.47 | Fold Change, TERT: 0.89 | Fold Change, TGFB1: 1.46 | Fold Change, TINF2: 1.14 | Fold Change, TNKS: 1.12 | Fold Change, TNKS2: 1.02 | Fold Change, TP53: 1.45 | Fold Change, TP53BP1: 1.18 | Fold Change, TPP1: 1.07 | Fold Change, WRAP53: 0.94 | Fold Change, XRCC5: 0.76 | Fold Change, XRCC6: 1.15 | Fold Up-or Down-Regulation, ABL1: -1.25 | Fold Up-or Down-Regulation, ACD: 1.16 | Fold Up-or Down-Regulation, ACTB: -1.32 | Fold Up-or Down-Regulation, AKT1: -1.30 | Fold Up-or Down-Regulation, ATM: 1.08 | Fold Up-or Down-Regulation, ATP5C1: 1.19 | Fold Up-or Down-Regulation, B2M: 1.15 | Fold Up-or Down-Regulation, BCL2: -1.32 | Fold Up-or Down-Regulation, BLM: 1.21 | Fold Up-or Down-Regulation, CDK2: -1.24 | Fold Up-or Down-Regulation, CHEK1: 1.13 | Fold Up-or Down-Regulation, CHEK2: 1.23 | Fold Up-or Down-Regulation, DCLRE1B: -1.24 | Fold Up-or Down-Regulation, DCLRE1C: 1.20 | Fold Up-or Down-Regulation, DKC1: 1.14 | Fold Up-or Down-Regulation, EGF: 1.11 | Fold Up-or Down-Regulation, EME1: 1.26 | Fold Up-or Down-Regulation, ERCC1: -1.00 | Fold Up-or Down-Regulation, ERCC4: 1.22 | Fold Up-or Down-Regulation, GAPDH: -1.04 | Fold Up-or Down-Regulation, GAR1: -1.05 | Fold Up-or Down-Regulation, HAT1: 1.13 | Fold Up-or Down-Regulation, HNRNPA2B1: 1.06 | Fold Up-or Down-Regulation, HNRNPD: -1.06 | Fold Up-or Down-Regulation, HPRT1: 1.14 | Fold Up-or Down-Regulation, HSP90AA1: 1.35 | Fold Up-or Down-Regulation, HSPA1L: 1.65 | Fold Up-or Down-Regulation, IGF1: -57.88 | Fold Up-or Down-Regulation, KRAS: -1.13 | Fold Up-or Down-Regulation, KRIT1: 1.12 | Fold Up-or Down-Regulation, MEN1: 1.14 | Fold Up-or Down-Regulation, MRE11A: 1.41 | Fold Up-or Down-Regulation, MSH2: -1.11 | Fold Up-or Down-Regulation, MSH3: -1.51 | Fold Up-or Down-Regulation, MUS81: 1.55 | Fold Up-or Down-Regulation, MYC: -1.33 | Fold Up-or Down-Regulation, NBN: -1.27 | Fold Up-or Down-Regulation, NCL: 1.04 | Fold Up-or Down-Regulation, NHP2: 1.46 | Fold Up-or Down-Regulation, NOP10: -1.22 | Fold Up-or Down-Regulation, OBFC1: 1.32 | Fold Up-or Down-Regulation, PARP1: 1.02 | Fold Up-or Down-Regulation, PAX8: 9.91 | Fold Up-or Down-Regulation, PIF1: -1.19 | Fold Up-or Down-Regulation, PINX1: 1.13 | Fold Up-or Down-Regulation, PLK1: -1.39 | Fold Up-or Down-Regulation, POT1: -1.14 | Fold Up-or Down-Regulation, PPARG: 1.08 | Fold Up-or Down-Regulation, PPP2R1A: -1.13 | Fold Up-or Down-Regulation, PPP2R1B: -1.46 | Fold Up-or Down-Regulation, PRKCA: 1.12 | Fold Up-or Down-Regulation, PRKCB: -2.06 | Fold Up-or Down-Regulation, PRKDC: -1.20 | Fold Up-or Down-Regulation, PTGES3: 1.07 | Fold Up-or Down-Regulation, PURA: 1.07 | Fold Up-or Down-Regulation, RAD17: 1.11 | Fold Up-or Down-Regulation, RAD50: 1.44 | Fold Up-or Down-Regulation, RAP1A: -1.11 | Fold Up-or Down-Regulation, RAPGEF1: -1.03 | Fold Up-or Down-Regulation, RASSF1: 1.26 | Fold Up-or Down-Regulation, RB1: -1.70 | Fold Up-or Down-Regulation, RFC1: 1.33 | Fold Up-or Down-Regulation, RIF1: 1.67 | Fold Up-or Down-Regulation, RPLP0: 1.05 | Fold Up-or Down-Regulation, RTEL1: -2.58 | Fold Up-or Down-Regulation, SART1: 1.50 | Fold Up-or Down-Regulation, SIRT2: -1.19 | Fold Up-or Down-Regulation, SIRT6: 1.89 | Fold Up-or Down-Regulation, SLX4: -1.15 | Fold Up-or Down-Regulation, SMAD3: -1.55 | Fold Up-or Down-Regulation, SMG6: 1.05 | Fold Up-or Down-Regulation, SP1: -1.43 | Fold Up-or Down-Regulation, SSB: 1.14 | Fold Up-or Down-Regulation, SUN1: 1.04 | Fold Up-or Down-Regulation, TEP1: 1.73 | Fold Up-or Down-Regulation, TERF1: 1.39 | Fold Up-or Down-Regulation, TERF2: -1.01 | Fold Up-or Down-Regulation, TERF2IP: 1.47 | Fold Up-or Down-Regulation, TERT: -1.12 | Fold Up-or Down-Regulation, TGFB1: 1.46 | Fold Up-or Down-Regulation, TINF2: 1.14 | Fold Up-or Down-Regulation, TNKS: 1.12 | Fold Up-or Down-Regulation, TNKS2: 1.02 | Fold Up-or Down-Regulation, TP53: 1.45 | Fold Up-or Down-Regulation, TP53BP1: 1.18 | Fold Up-or Down-Regulation, TPP1: 1.07 | Fold Up-or Down-Regulation, WRAP53: -1.06 | Fold Up-or Down-Regulation, XRCC5: -1.32 | Fold Up-or Down-Regulation, XRCC6: 1.15
